Test results reported in patent US10160762B2, “6-alkyl dihydropyrazolopyrimidinone compounds as PDE2 inhibitors” (Merck Sharp & Dohme Corp., priority 2015, dated 2018).

Biological target: T1, Rhesus PDE2A3 (Macaca mulatta, UniProt B3VTJ2)
T1 construct: made in house; host or cells: AD293 cells, transient transfection; supernatant of sonicated lysate
T1 sequence (B3VTJ2 1-941): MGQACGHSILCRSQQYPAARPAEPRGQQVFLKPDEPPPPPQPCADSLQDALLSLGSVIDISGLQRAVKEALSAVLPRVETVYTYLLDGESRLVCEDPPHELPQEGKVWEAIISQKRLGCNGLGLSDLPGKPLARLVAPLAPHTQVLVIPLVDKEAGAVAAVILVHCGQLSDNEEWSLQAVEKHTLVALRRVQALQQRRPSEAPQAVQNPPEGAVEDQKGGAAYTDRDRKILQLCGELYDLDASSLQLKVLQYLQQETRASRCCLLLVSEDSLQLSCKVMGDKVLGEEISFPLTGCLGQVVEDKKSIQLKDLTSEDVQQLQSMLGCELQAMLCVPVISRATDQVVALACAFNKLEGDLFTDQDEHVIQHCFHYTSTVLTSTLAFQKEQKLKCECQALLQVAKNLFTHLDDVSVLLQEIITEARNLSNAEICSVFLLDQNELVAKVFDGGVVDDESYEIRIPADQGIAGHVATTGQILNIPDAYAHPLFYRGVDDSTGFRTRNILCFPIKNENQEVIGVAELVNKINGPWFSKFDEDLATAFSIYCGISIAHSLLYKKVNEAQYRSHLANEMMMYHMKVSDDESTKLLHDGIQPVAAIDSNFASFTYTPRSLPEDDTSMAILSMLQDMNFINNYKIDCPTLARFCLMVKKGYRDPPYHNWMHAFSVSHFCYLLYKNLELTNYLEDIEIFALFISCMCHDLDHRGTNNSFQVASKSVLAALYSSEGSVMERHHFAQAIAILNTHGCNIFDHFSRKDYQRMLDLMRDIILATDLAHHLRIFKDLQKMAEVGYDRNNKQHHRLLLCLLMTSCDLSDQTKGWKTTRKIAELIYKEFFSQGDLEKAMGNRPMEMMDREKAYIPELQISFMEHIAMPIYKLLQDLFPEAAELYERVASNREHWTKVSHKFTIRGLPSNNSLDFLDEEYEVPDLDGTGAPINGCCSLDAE
Assay: PDE2 fluorescence polarization (IMAP FP) inhibition assay, rhesus PDE2A3
Format: biochemical, rhesus macaque
Settings: Lab B; read-out: Rhesus PDE2 Ki (nM) Lab B
How it was run: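 Enzyme source was the lysate supernatant of AD293 cells transiently expressing rhesus PDE2A3, diluted to give 20% conversion of 50 nM FAM-cAMP, with 1 µM cGMP as activator. Buffer was 10 mM Tris pH 7.2, 10 mM MgCl2, 1 mM DTT.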

Row | Ki [nM] | SMILES
1 | 36 | CC(C)c1nc2c(c(CO)nn2C(C)c2ccc(C(F)(F)F)cc2)c(=O)[nH]1 (racemic) [Example 296, 3-(Hydroxymethyl)-6-(1-methylethyl)-1-{1-[4-(trifluoromethyl)phenyl]ethyl}-1,5-dihydro-4H-pyrazolo[3,4-d]pyrimidin-4-one]
2 | 1.7 | Cc1nc2c(c(CO)nn2C(C)c2ccc(C(F)(F)F)cc2F)c(=O)[nH]1 (single isomer, unassigned) [Example 17, (S)- or (R)-1-(1-(2-Fluoro-4-(trifluoromethyl)phenyl)ethyl)-3-(hydroxymethyl)-6-methyl-1H-pyrazolo[3,4-d]pyrimidin-4(5H)-one]
3 | 1.9 | Cc1nc2c(c(CO)nn2C(C)c2ccc(C(F)(F)F)cc2Cl)c(=O)[nH]1 (single isomer, unassigned) [Example 19, (S)- or (R)-1-(1-(2-Chloro-4-(trifluoromethyl)phenyl)ethyl)-3-(hydroxymethyl)-6-methyl-1H-pyrazolo[3,4-d]pyrimidin-4(5H)-one]
4 | 2.9 | Cc1nc2c(c(CO)nn2C(C)c2ccc(OC(F)F)cc2)c(=O)[nH]1 (single isomer, unassigned) [Example 21, (S)- or (R)-1-(1-(4-(Difluoromethoxy)phenyl)ethyl)-3-(hydroxymethyl)-6-methyl-1H-pyrazolo[3,4-d]pyrimidin-4(5H)-one]
5 | 1.7 | Cc1nc2c(c(CO)nn2C(C)c2ccc(SC(F)(F)F)cc2)c(=O)[nH]1 (single isomer, unassigned) [Example 23, (S)- or (R)-3-(Hydroxymethyl)-6-methyl-1-(1-(4-(trifluoromethylthio)phenyl)ethyl)-1H-pyrazolo[3,4-d]pyrimidin-4(5H)-one]
6 | 1.9 | Cc1nc2c(c(CO)nn2C(c2ccc(C(F)(F)F)cc2)C2(C)CC2)c(=O)[nH]1 (single isomer, unassigned) [Example 24, (R)- or (S)-3-(Hydroxymethyl)-6-methyl-1-((1-methylcyclopropyl)(4-(trifluoromethyl)phenyl)methyl)-1H-pyrazolo[3,4-d]pyrimidin-4(5H)-one]
7 | 69 | Cc1nc2c(c(CC(F)(F)F)nn2C(c2ccc(C(F)(F)F)cc2)C(C)(C)C)c(=O)[nH]1 (single isomer, unassigned) [Example 57, (S)- or (R)-1-(2,2-Dimethyl-1-(4-(trifluoromethyl)phenyl)propyl)-6-methyl-3-(2,2,2-trifluoroethyl)-1H-pyrazolo[3,4-d]pyrimidin-4(5H)-one]
8 | 22 | Cc1nc2c(c(CC(F)(F)F)nn2C(c2ccc(C(F)(F)F)cc2)C2(C)CC2)c(=O)[nH]1 (single isomer, unassigned) [Example 59, (S)- or (R)-6-Methyl-1-((1-methylcyclopropyl)(4-(trifluoromethyl)phenyl)methyl)-3-(2,2,2-trifluoroethyl)-1H-pyrazolo[3,4-d]pyrimidin-4(5H)-one]
9 | 4.2 | Cc1nc2c(c(CO)nn2C(C)c2ccc(S(F)(F)(F)(F)F)cc2)c(=O)[nH]1 (single isomer, unassigned) [Example 77]
10 | 9.4 | Cc1nc2c(c(CO)nn2C(c2ccc(C(F)(F)F)cc2)C(C)(C)C)c(=O)[nH]1 (single isomer, unassigned) [Example 83, (S)- or (R)-1-(2,2-Dimethyl-1-(4-(trifluoromethyl)phenyl)-propyl)-3-(hydroxymethyl)-6-methyl-1H-pyrazolo[3,4-d]pyrimidin-4(5H)-one]
11 | 16 | Cc1nc2c(c(CO)nn2C(c2ccc(OC(F)(F)F)cc2)C(C)C)c(=O)[nH]1 (single isomer, unassigned) [Example 84, (R)- or (S)-3-(Hydroxymethyl)-6-methyl-1-(2-methyl-1-(4-(trifluoromethoxy)phenyl)propyl)-1H-pyrazolo[3,4-d]pyrimidin-4(5H)-one]
12 | 0.91 | Cc1nc2c(c(CO)nn2C(c2ccc(OC(F)(F)F)cc2)C(C)C)c(=O)[nH]1 (single isomer, unassigned) [Example 85, (S)- or (R)-3-(Hydroxymethyl)-6-methyl-1-(2-methyl-1-(4-(trifluoromethoxy)phenyl)propyl)-1H-pyrazolo[3,4-d]pyrimidin-4(5H)-one]
13 | 3.2 | Cc1nc2c(c(CO)nn2C(c2ccc(C(F)(F)F)c(F)c2)C(C)C)c(=O)[nH]1 (single isomer, unassigned) [Example 87, (S)- or (R)-1-(1-(3-Fluoro-4-(trifluoromethyl)phenyl)-2-methylpropyl)-3-(hydroxymethyl)-6-methyl-1H-pyrazolo[3,4-d]pyrimidin-4(5H)-one]
14 | 51 | Cc1nc2c(c(CO)nn2C(c2ccc(C(C)(C)C)cc2)C2CC2)c(=O)[nH]1 (single isomer, unassigned) [Example 88, (R)- or (S)-1-((4-tert-Butylphenyl)(cyclopropyl)methyl)-3-(hydroxymethyl)-6-methyl-1H-pyrazolo[3,4-d]pyrimidin-4(5H)-one]
15 | 0.48 | Cc1nc2c(c(CO)nn2C(c2ccc(C(C)(C)C)cc2)C2CC2)c(=O)[nH]1 (single isomer, unassigned) [Example 89, (S)- or (R)-1-((4-tert-Butylphenyl)(cyclopropyl)methyl)-3-(hydroxymethyl)-6-methyl-1H-pyrazolo[3,4-d]pyrimidin-4(5H)-one]
16 | 90 | Cc1nc2c(c(CO)nn2C(c2ccc(C(F)(F)F)c(F)c2)C2CC2)c(=O)[nH]1 (single isomer, unassigned) [Example 90, (R)- or (S)-1-(Cyclopropyl(3-fluoro-4-(trifluoromethyl)phenyl)methyl)-3-(hydroxymethyl)-6-methyl-1H-pyrazolo[3,4-d]pyrimidin-4(5H)-one]
17 | 1 | Cc1nc2c(c(CO)nn2C(c2ccc(C(F)(F)F)c(F)c2)C2CC2)c(=O)[nH]1 (single isomer, unassigned) [Example 91, (S)- or (R)-1-(Cyclopropyl(3-fluoro-4-(trifluoromethyl)phenyl)methyl)-3-(hydroxymethyl)-6-methyl-1H-pyrazolo[3,4-d]pyrimidin-4(5H)-one]
18 | 10 | Cc1nc2c(c(CO)nn2C(c2ccc(OC(F)(F)F)c(F)c2)C2CC2)c(=O)[nH]1 (single isomer, unassigned) [Example 92, (R)- or (S)-1-(Cyclopropyl(3-fluoro-4-(trifluoromethoxy)phenyl)methyl)-3-(hydroxymethyl)-6-methyl-1H-pyrazolo[3,4-d]pyrimidin-4(5H)-one]
19 | 1.9 | Cc1nc2c(c(CO)nn2C(c2ccc(OC(F)(F)F)c(F)c2)C2CC2)c(=O)[nH]1 (single isomer, unassigned) [Example 93, (S)- or (R)-1-(Cyclopropyl(3-fluoro-4-(trifluoromethoxy)phenyl)methyl)-3-(hydroxymethyl)-6-methyl-1H-pyrazolo[3,4-d]pyrimidin-4(5H)-one]
20 | 0.87 | COc1ccc(Cc2nc3c(c(CF)nn3C(C)c3ccc(C(F)(F)F)cc3)c(=O)[nH]2)cc1 (single isomer, unassigned) [Example 219, (S)- or (R)-3-(Fluoromethyl)-6-(4-methoxybenzyl)-1-(1-(4-(trifluoromethyl)phenyl)ethyl)-1H-pyrazolo[3,4-d]pyrimidin-4(5H)-one]
21 | 1.9 | COc1cccc(Cc2nc3c(c(CF)nn3C(C)c3ccc(C(F)(F)F)cc3)c(=O)[nH]2)c1 (single isomer, unassigned) [Example 221, (S)- or (R)-3-(Fluoromethyl)-6-(3-methoxybenzyl)-1-(1-(4-(trifluoromethyl)phenyl)ethyl)-1H-pyrazolo[3,4-d]pyrimidin-4(5H)-one]
22 | 0.94 | Cc1nc2c(c(CF)nn2C(c2ccc(OC(F)(F)F)cc2)C2CC2)c(=O)[nH]1 (single isomer, unassigned) [Example 224, (R)- or (S)-1-(Cyclopropyl(4-(trifluoromethoxy)phenyl)methyl)-3-(fluoromethyl)-6-methyl-1,5-dihydro-4H-pyrazolo[3,4-d]pyrimidin-4-one]
23 | 0.33 | Cc1nc2c(c(CF)nn2C(c2ccc(C(F)(F)F)c(F)c2)C2CC2)c(=O)[nH]1 (single isomer, unassigned) [Example 226, (R)- or (S)-1-(Cyclopropyl(3-fluoro-4-(trifluoromethyl)phenyl)methyl)-3-(fluoromethyl)-6-methyl-1,5-dihydro-4H-pyrazolo[3,4-d]pyrimidin-4-one]
24 | 0.5 | Cc1nc2c(c(CF)nn2C(c2ccc(OC(F)(F)F)c(F)c2)C2CC2)c(=O)[nH]1 (single isomer, unassigned) [Example 228, (R)- or (S)-1-(Cyclopropyl(3-fluoro-4-(trifluoromethoxy)phenyl)methyl)-3-(fluoromethyl)-6-methyl-1,5-dihydro-4H-pyrazolo[3,4-d]pyrimidin-4-one]
